# Measurements: ChEMBL document CHEMBL1143187, “Synthesis of and evaluation of lipid A modification by 4-substituted 4-deoxy arabinose analogs as potential inhibitors of bacterial polymyxin resistance” (Bioorg Med Chem Lett, 2008)
# Activity calls are given as the source filed them. The calls are words filed in the database; no cut-off is given here.
# Experiments:
# Escherichia coli [1] = assay: Inhibition of Escherichia coli ArnB upto 100 uM
# [2] = target: Undecaprenyl phosphate-alpha-4-amino-4-deoxy-L-arabinose arabinosyl transferase (Salmonella typhimurium (strain LT2 / SGSC1412 / ATCC 700720)) (UniProt O52327); assay: Inhibition of PmrK/ArnT in Salmonella Typhimurium JSG435 membranes assessed as effect on transfer of aminoarabinose tp lipid A; conditions: Salmonella enterica subsp. enterica serovar Typhimurium
# Escherichia coli [3] = assay: Inhibition of Escherichia coli ArnA upto 100 uM
Compound,Activity (Escherichia coli [1]),Activity [2],Activity (Escherichia coli [3])
CC(=O)OC1OC[C@H](N=[N+]=[N-])[C@H](OC(C)=O)[C@H]1OC(C)=O (stereo partly drawn),Active,Active,Active
CC(=O)O[C@@H]1[C@@H](OC(C)=O)[C@@H](OP(=O)(O)O)OC[C@@H]1N=[N+]=[N-],Active,–,Active
CC(=O)O[C@@H]1[C@@H](OC(C)=O)[C@@H](OP(=O)(O)OP(=O)(O)OC[C@H]2O[C@@H](n3ccc(=O)[nH]c3=O)[C@H](O)[C@@H]2O)OC[C@@H]1N=[N+]=[N-].CCCCCCCCCN,Active,–,Active

# Second part, the compound after the results:
Activity (Escherichia coli [1]),Activity [2],Activity (Escherichia coli [3]),Compound
Active,–,Active,CCCCCCCCN.CCOP(=O)(Cc1ccccc1)N[C@H]1CO[C@H](OP(=O)(O)OP(=O)(O)OC[C@H]2O[C@@H](n3ccc(=O)[nH]c3=O)[C@H](O)[C@@H]2O)[C@H](OC(C)=O)[C@H]1OC(C)=O (stereo partly drawn)
Active,–,Active,COP(=O)(N[C@H]1CO[C@H](OP(=O)(O)O)[C@H](OC(C)=O)[C@H]1OC(C)=O)OC
Active,–,Active,COP(=O)(N[C@H]1CO[C@H](OP(=O)(OCc2ccccc2)OCc2ccccc2)[C@H](OC(C)=O)[C@H]1OC(C)=O)OC
